Patent EP1138666B1, “A preparation method for 4-(P-methoxyphenyl)-2-amino-butane and an insecticidal composition comprising it” (Council of Scientific and Industrial Research, priority 2000, dated 2001)

Experiments:
[1] = tested on: 4th instar larvae of Spilarctia Obliqua; assay: feeding deterrency (antifeedant) bioassay, diet-mix method, fecal pellet count; assay type: in vivo; details: for % feeding deterrency: artificial diet, after 24 hours; for antifeedant activity: result in words, bioassay studies
Experimental: (§1) The compound having formula (1) was evaluated as feeding deterrent and growth inhibitor against 4th in star larvae of spilarctia obliqua (Bihar hairy caterpillar). This insect attacks more than twenty cash crops like urd, moong, arhar, mint and coleus etc. Several synthetic insecticides like quinalphos, Phosphamidon and synthetic pyrethroids are commercially used to manage this insect pest. But, the insect is developing resistance towards some of these insecticides. Therefore, it has now become imperative to search for new ecologically safe, environmentally sound and non-toxic chemicals to manage this pest.
(§2) With compound having formula (1) insect feeding deterrency and growth inhibition was tested by diet-mix method. In this method, 4-(p-methoxyphenyl)-2-aminobutane,the compound having formula (1) was dissolved in acetone to make various concentrations ranging from 1000 to 5000 ppm. Test solution was mixed in the artificial diet of the insect so that each gram of diet contained 60-300 µg of the compound (1). 4th in star larva (newly molted) starved four hours, was weighed and released on treated artificial diet in thirty replications. In control, only solvent acetone was mixed and azadirachtin at 1000 ppm concentration was taken as standard for feeding bioassay. After 24 hours, number of fecal pellets produced were counted, and the data were analyzed for % feeding deterrency. Some experiments were continued for next 24 hours and weights of the larva were taken daily. After 3 days, experiment was discontinued and weight gain or loss was analyzed for % growth inhibition.

[2] = sensitivity to light (UV and sunlight); assay type: physicochemical
[3] = tested on: 4th instar larvae of Spilarctia Obliqua; assay: growth inhibition assay, diet-mix method, larval weight gain or loss; assay type: in vivo; details: for growth inhibition: result in words, bioassay studies
Experimental: as §1, §2
Diflubenzuron at 5 ppm was taken as a standard in case of growth inhibitory assay. The test result of compound having formula (1) in terms of its feeding deterrency and growth inhibition as compared to standards azadirachtin and diflubenzuron are given in table 1.

[4] = Spilarctia obliqua, 72 h, read-out: % growth inhibition

In the case of `C/C=C(\C)C(=O)O[C@H]1C[C@@H](OC(C)=O)[C@@]2(C(=O)OC)CO[C@H]3[C@@H](O)[C@@](C)([C@]45O[C@@]4(C)[C@H]4C[C@@H]5O[C@@H]5OC=C[C@@]54O)[C@H]4[C@]1(CO[C@]4(O)C(=O)OC)[C@@H]32` [Azadirachtin, reference compound], the “% feeding deterrency” value ([1]; 1000 ppm) was 100.0% and the sensitivity to light [2] was “photosensitive”.
For `COc1ccc(CCC(C)N)cc1` (stereo not drawn) [Compound 1, 4-(p-methoxyphenyl)-2-amino-butane], the “% feeding deterrency” value ([1]; 1000 ppm) was 32.0%, the “% feeding deterrency” value ([1]; 2000 ppm) was 40.0% and the “% feeding deterrency” value ([1]; 3000 ppm) was 64.0%. The “% feeding deterrency” value ([1]; 4000 ppm) was 82.0%, the “% feeding deterrency” value ([1]; 5000 ppm) was 100.0% and the antifeedant activity [1] was “significant activity”. For the same molecule, the inhibition at 1000 ppm [3, 4] was 48%, the inhibition at 2000 ppm [3, 4] was 59% and the inhibition at 3000 ppm [3, 4] was 72%. For the same molecule, the inhibition at 4000 ppm [3, 4] was 100%, the inhibition at 5000 ppm [3, 4] was 128% and the growth inhibition [3] was “significant activity”. The sensitivity to light [2] was “not sensitive to light”.
For `O=C(NC(=O)c1c(F)cccc1F)Nc1ccc(Cl)cc1` [Diflubenzuron, reference compound], the inhibition at 5 ppm ([3]; Spilarctia obliqua, 72 h, 5 ppm, artificial diet, after 3 days) was 100%.
In the case of `CC(O)CCc1ccc(O)cc1` (stereo not drawn) [compound (2), 4-(p-hydroxyphenyl)-butan-2-ol], the antifeedant activity [1] was “not found to be active” and the growth inhibition [3] was “not found to be active”.
